Measured values published in PMC10761696, “Avapritinib-based SAR studies unveil a binding pocket in KIT and PDGFRA” (Nature Communications, 2024).
“And” between values parts separate entries of the source, which are not always exact repeats. Equal entries are not always repeated. Where two headings read alike, the source gives them in different places.

Experiments:
[1] = MDCKII-MDR1 permeability assay; details: dog, MDCK-MDR1, Papp A->B, MDCKII-MDR1; assay conc. 10; apical to basolateral
MDR1 = experiment: MDCKII-MDR1 permeability assay; details: dog, MDCKII-MDR1, assay conc. 10
PDGFRA-D842V = target: T1, PDGFRA-D842V (Homo sapiens, UniProt P16234, D842V); experiment: Activity-based HTRF KinEASE assay, PDGFRA-D842V; format: biochemical
T1 construct: purchased Invitrogen PV4203 (lot #2343231B)
T1 sequence (P16234 24-1089 D842V): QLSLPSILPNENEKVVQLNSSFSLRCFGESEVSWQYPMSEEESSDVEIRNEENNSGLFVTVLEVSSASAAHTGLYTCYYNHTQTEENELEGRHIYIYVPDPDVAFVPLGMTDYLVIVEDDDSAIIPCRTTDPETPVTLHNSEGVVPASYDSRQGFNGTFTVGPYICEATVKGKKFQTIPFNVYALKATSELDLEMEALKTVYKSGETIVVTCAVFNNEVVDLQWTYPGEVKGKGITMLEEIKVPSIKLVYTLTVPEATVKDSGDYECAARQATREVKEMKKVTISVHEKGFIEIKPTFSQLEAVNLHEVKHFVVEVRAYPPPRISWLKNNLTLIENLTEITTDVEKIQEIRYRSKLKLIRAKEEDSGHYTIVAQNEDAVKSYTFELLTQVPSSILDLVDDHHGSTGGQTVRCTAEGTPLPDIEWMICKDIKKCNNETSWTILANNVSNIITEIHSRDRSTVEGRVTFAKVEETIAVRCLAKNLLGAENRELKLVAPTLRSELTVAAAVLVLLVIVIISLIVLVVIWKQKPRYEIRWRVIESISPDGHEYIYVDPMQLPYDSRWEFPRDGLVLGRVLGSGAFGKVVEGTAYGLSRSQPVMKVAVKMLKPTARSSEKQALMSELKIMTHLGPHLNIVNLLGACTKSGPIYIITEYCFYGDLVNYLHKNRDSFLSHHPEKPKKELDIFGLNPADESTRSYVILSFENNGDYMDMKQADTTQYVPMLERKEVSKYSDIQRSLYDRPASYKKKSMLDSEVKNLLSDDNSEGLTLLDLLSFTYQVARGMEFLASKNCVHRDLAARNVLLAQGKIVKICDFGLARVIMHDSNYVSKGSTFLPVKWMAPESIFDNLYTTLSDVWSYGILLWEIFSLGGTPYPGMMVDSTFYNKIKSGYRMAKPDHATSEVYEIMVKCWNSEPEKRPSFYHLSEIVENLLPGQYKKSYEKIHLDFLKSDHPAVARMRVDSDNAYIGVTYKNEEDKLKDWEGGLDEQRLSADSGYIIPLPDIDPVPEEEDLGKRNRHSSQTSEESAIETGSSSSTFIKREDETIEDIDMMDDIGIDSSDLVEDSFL

KIT-D816H = KIT-D816H (Homo sapiens, UniProt P10721, D816H); experiment: Activity-based HTRF KinEASE assay, KIT-D816H; format: biochemical
KIT-D816H, sequence (P10721 26-976 D816H): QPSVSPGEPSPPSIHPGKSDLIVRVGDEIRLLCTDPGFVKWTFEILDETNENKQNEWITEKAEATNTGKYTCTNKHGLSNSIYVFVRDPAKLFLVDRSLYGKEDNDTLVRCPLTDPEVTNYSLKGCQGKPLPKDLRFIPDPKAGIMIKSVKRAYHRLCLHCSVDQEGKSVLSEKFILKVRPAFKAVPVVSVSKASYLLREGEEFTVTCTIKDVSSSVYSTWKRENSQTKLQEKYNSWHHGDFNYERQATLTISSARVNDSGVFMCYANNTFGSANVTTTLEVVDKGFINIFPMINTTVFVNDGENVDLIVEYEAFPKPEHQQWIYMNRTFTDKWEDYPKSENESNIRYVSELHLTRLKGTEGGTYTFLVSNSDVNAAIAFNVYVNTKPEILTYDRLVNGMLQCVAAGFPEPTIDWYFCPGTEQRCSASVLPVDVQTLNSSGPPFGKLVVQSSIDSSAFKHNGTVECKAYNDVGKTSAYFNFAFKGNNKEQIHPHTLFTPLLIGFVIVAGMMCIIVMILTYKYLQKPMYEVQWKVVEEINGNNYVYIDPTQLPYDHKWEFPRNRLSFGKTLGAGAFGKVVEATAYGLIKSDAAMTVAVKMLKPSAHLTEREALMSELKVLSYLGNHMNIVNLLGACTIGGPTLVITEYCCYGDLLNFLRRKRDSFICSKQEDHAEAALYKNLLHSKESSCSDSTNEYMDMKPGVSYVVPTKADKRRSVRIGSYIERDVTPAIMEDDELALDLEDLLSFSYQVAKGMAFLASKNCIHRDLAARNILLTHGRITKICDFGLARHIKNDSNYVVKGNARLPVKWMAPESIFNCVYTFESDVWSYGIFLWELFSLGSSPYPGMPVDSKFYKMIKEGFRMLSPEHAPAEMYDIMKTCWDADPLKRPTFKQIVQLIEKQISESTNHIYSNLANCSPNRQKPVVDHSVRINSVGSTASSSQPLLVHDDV

ZR-75-1 = experiment: CellTiter-Glo (CTG) EC50, ZR-75-1 breast cancer control cell line; format: cell-based, human
Procedure: (§1) Cell line authenticity was confirmed by STR analysis at Eurofins Genomics. All cell lines were tested regularly for mycoplasma contamination using the Mycoplasmacheck Service at Eurofins Genomics. […] Following incubation for 24 h in a humidified atmosphere at 37 °C and 5% CO2, cells were treated with inhibitors in serial dilutions ranging from 30 µM down to 0.1 nM using an Echo650 acoustic liquid handler (Beckman Coulter). Cell viability was analyzed on day 5 using the CellTiter-Glo® assay (Promega) using 500 ms integration time. The obtained data were normalized to the plate positive control (30 µM staurosporine) and negative control (DMSO) and subsequently analyzed and fitted with the Quattro Software Suite (Quattro Research) using a four-parameter logistic model. As quality control, the Z’-factor was calculated from 16 positive and negative control values. Only assay results showing a Z’-factor ≥0.5 were used for further analysis. All experimental points were measured in duplicates for each plate and were independently replicated in at least three plates.

MDA-MB-175VII = experiment: CellTiter-Glo (CTG) EC50, MDA-MB-175VII breast cancer control cell line; format: cell-based, human
Procedure: as §1

GIST-T1 = experiment: CellTiter-Glo (CTG) GR50, GIST-T1; details: Homo sapiens
T1-T670I = experiment: CellTiter-Glo (CTG) GR50, T1-T670I; details: Homo sapiens
T1-V654A = experiment: CellTiter-Glo (CTG) GR50, T1-V654A; details: Homo sapiens
T1-a-5258 = experiment: CellTiter-Glo (CTG) GR50, T1-a-5258; details: Homo sapiens
SK-LMS-1 = experiment: CellTiter-Glo (CTG) GR50, SK-LMS-1 control cell line; details: for CTG GR50 SK-LMS-1, single determinations: raw data of Supp. Tab. 2, independent experiments, unit from Supp. Tab. 2
GIST-48B = experiment: CellTiter-Glo (CTG) GR50, GIST-48B control cell line (off-target toxicity); details: ratio of GR50 values; for GIST-48B/D842V: source data sheet
[2] = mean ± s.d., n ≥ 3, ATP at KM (14 µM), read-out: HTRF IC50 PDGFRA-D842V
[3] = raw data of Table 1, independent experiments 1-3, unit from Table 1, read-out: HTRF IC50 PDGFRA-D842V, single determinations
[4] = mean ± s.d., n ≥ 3, ATP at KM (12 µM), read-out: HTRF IC50 KIT-D816H
[5] = raw data of Table 1, independent experiments, unit from Table 1, read-out: HTRF IC50 KIT-D816H, single determinations
[6] = Homo sapiens, ZR-75-1, mean ± s.d., n = 3, control cell line, read-out: CTG EC50 ZR-75-1
[7] = Homo sapiens, ZR-75-1, raw data of Supp. Tab. 2, independent experiments, unit from Supp. Tab. 2, read-out: CTG EC50 ZR-75-1, single determinations
[8] = Homo sapiens, MDA-MB-175-VII, read-out: CTG EC50 MDA-MB-175VII, mean ± s.d., n = 3, control cell line
[9] = Homo sapiens, MDA-MB-175-VII, read-out: CTG EC50 MDA-MB-175VII, single determinations, raw data of Supp. Tab. 2, independent experiments, unit from Supp. Tab. 2
[10] = GISTT1, read-out: KIT CTG GR50 GIST-T1, mean ± s.d., n ≥ 3, GR50 half-maximal growth inhibition rate
[11] = read-out: CTG GR50 T1-T670I, single determinations, raw data of Supp. Tab. 1, independent experiments, unit from Supp. Tab. 1
[12] = read-out: KIT CTG GR50 T1-T670I, mean ± s.d., n ≥ 3
[13] = read-out: CTG GR50 T1-V654A, single determinations, raw data of Supp. Tab. 1, independent experiments, unit from Supp. Tab. 1
[14] = read-out: KIT CTG GR50 T1-V654A, mean ± s.d., n ≥ 3 (* n = 2 for ava)
[15] = read-out: CTG GR50 T1-a-5258, single determinations, raw data of Supp. Tab. 1, independent experiments, unit from Supp. Tab. 1
[16] = read-out: PDGFRA CTG GR50 T1-a-5258, mean ± s.d., n ≥ 3, triple mutant D842V, G652E, V658A
[17] = GISTT1, read-out: CTG GR50 GIST-T1, single determinations, raw data of Table 1, independent experiments, unit from Table 1

Row | Compound | IC50 (PDGFRA-D842V; [2]) | IC50 (PDGFRA-D842V; [3]) | IC50 (KIT-D816H; [4]) | IC50 (KIT-D816H; [5]) | EC50 (ZR-75-1; [6]) | EC50 (ZR-75-1; [7]) | EC50 (MDA-MB-175VII; [8]) | EC50 (MDA-MB-175VII; [9]) | GI50 (GIST-T1; [10]) | GI50 (T1-T670I; [11]) | GI50 (T1-T670I; [12]) | GI50 (T1-V654A; [13]) | GI50 (T1-V654A; [14]) | GI50 (T1-a-5258; [15]) | GI50 (T1-a-5258; [16]) | ratio GIST-48B/ T1-a-D842V (GIST-48B) | GIST-48B/D842V (GIST-48B) | GI50 (GIST-T1; [17]) | CTG GR50 SK-LMS-1, single determinations (SK-LMS-1) | also measured
1 | Cn1cc(-c2cc3c(N4CCN(c5ncc(C(C)(N)c6ccc(F)cc6)cn5)CC4)ncnn3c2)cn1 (centres unmarked) [1 (avapritinib)] |  |  |  |  |  |  |  |  |  |  |  |  |  |  |  |  |  |  |  | Papp A→B at 2 h, 10 µM [1]: 12.5 ×10⁻⁶ cm/s; recovery at 2 h, 10 µM (MDR1; MDCK-MDR1, Recovery A->B): 87.6%; recovery at 2 h, 10 µM (MDR1; MDCK-MDR1, Recovery B->A): 150%
2 | Cn1cc(-c2cc3c(N4CCN(c5ncc(Cc6ccccc6)cn5)CC4)ncnn3c2)cn1 [Compound 5] |  |  |  |  | ≥ 10 µM | ≥ 10 µM | ≥ 10 µM | ≥ 10 µM | 1.48 ± 1.2 µM | ≥ 10 µM | ≥ 10 µM | ≥ 10 µM | ≥ 10 µM | 6.6 µM | 8.26 ± 1.7 µM |  |  |  | ≥10 µM | 

Now from value to molecule, other results behind:

Row | IC50 (PDGFRA-D842V; [2]) | IC50 (PDGFRA-D842V; [3]) | IC50 (KIT-D816H; [4]) | IC50 (KIT-D816H; [5]) | EC50 (ZR-75-1; [6]) | EC50 (ZR-75-1; [7]) | EC50 (MDA-MB-175VII; [8]) | EC50 (MDA-MB-175VII; [9]) | Compound | GI50 (GIST-T1; [10]) | GI50 (T1-T670I; [11]) | GI50 (T1-T670I; [12]) | GI50 (T1-V654A; [13]) | GI50 (T1-V654A; [14]) | GI50 (T1-a-5258; [15]) | GI50 (T1-a-5258; [16]) | ratio GIST-48B/ T1-a-D842V (GIST-48B) | GIST-48B/D842V (GIST-48B) | GI50 (GIST-T1; [17]) | CTG GR50 SK-LMS-1, single determinations (SK-LMS-1) | also measured
3 | 7.34 µM | 4.47 µM and 9.3 µM and 8.26 µM | 9.3 ± 1.21 µM | 7.91 µM and 10 µM (2×) | 6.48 µM | 7.51 µM | 9.19 µM | 10 µM | Cn1cc(-c2cc3c(Cl)ncnn3c2)cn1 [Compound 2, 4-chloro-6-(1-methyl-1H-pyrazol-4-yl)pyrrolo[2,1-f][1,2,4]triazine] | 6.73 ± 2.07 µM | 3.55 µM | 2.87 ± 0.51 µM | 6.09 µM | 7.56 ± 0.991 µM | 1.38 µM | 1.34 ± 0.07 µM | 3 | 3 |  |  | EC50 (ZR-75-1; raw data of Supp. Tab. 2, independent experiments, unit from Supp. Tab. 2, read-out: CTG EC50 ZR-75-1, single determinations): 7.14 µM and 4.8 µM; EC50 (MDA-MB-175VII; read-out: CTG EC50 MDA-MB-175VII, single determinations, raw data of Supp. Tab. 2, independent experiments, unit from Supp. Tab. 2): 7.57 µM; CTG GR50 SK-LMS-1 (SK-LMS-1; mean ± s.d., n = 3, control cell line): 7.713 ± 3.929 µM and 7.713 µM
4 | 5.59 ± 2.56 µM | 2.5 µM and 8.76 µM and 5.5 µM | 1.54 ± 0.852 µM | 1.4 µM and 0.766 µM and 2.45 µM | ≥ 10 µM | ≥ 10 µM | ≥ 10 µM | ≥ 10 µM | Cn1cc(-c2cc3c(N4CCNCC4)ncnn3c2)cn1 [Compound 3] | ≥ 10 µM |  |  |  |  |  |  | 1 | 1 | ≥ 10 µM | ≥10 µM | 
5 | 0.035 ± 0.013 µM | 0.0496 µM and 0.0362 µM and 0.0185 µM | 0.076 ± 0.045 µM | 0.0275 µM and 0.0821 µM and 0.118 µM | ≥ 10 µM | ≥ 10 µM | ≥ 10 µM | ≥ 10 µM | Cn1cc(-c2cc3c(N4CCN(c5ncccn5)CC4)ncnn3c2)cn1 [Compound 4] | 5.27 ± 0.509 µM | ≥ 10 µM | ≥ 10 µM | ≥ 10 µM | ≥ 10 µM | ≥ 10 µM | ≥ 10 µM | 5 | 5.3 | 5.8 µM | ≥10 µM | fold increase in potency with respect to PDGFRA-D842V (PDGFRA-D842V; 4 (pyrimidine added) compared with 3): 160 fold
